# Patent US8791132B2, “Compounds and methods for treatment of hypertension” (Medivation Technologies, Inc., priority 2011, dated 2014)
# Key:
# [1] = molecular target: T1, human recombinant adrenergic α2B receptor (Homo sapiens, UniProt P18089); assay: Radioligand binding, adrenergic α2B ([3H]Rauwolscine); conditions: [3H]Rauwolscine, repeat datapoints each shown; for Percentage inhibition of ligand binding, Adrenergic α2B (0.03 μM): compound at 0.03 μM
# T1 construct: expressed in transfected cells; host or cells: CHO-K1
# T1 sequence (P18089 1-450): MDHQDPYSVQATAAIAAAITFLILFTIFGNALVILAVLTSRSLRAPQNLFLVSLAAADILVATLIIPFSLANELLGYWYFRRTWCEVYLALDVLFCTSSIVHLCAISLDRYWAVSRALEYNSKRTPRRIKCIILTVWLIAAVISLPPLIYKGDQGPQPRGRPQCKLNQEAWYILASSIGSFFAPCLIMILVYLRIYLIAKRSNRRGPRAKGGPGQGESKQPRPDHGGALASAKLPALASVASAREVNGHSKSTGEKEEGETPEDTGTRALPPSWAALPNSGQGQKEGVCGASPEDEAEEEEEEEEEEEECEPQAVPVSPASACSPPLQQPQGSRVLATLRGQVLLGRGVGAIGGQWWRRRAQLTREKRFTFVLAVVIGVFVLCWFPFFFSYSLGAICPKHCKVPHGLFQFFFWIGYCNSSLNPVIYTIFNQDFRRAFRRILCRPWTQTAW
# Outline: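 Readout: percent inhibition of specific [3H]Rauwolscine binding, measured by filtration and counting. Conditions: CHO-K1 cell-expressed receptor, 2.5 nM radioligand, 60 min, 25° C, Tris-HCl pH 7.4 buffer with MgCl2, EDTA, BSA. Non-specific binding: 10 μM Prazosin.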
# [2] = molecular target: T2, human recombinant adrenergic α2A receptor (Homo sapiens, UniProt P08913); assay: Radioligand binding, adrenergic α2A ([3H]MK-912); conditions: [3H]MK-912, repeat datapoints each shown; for Percentage inhibition of ligand binding, Adrenergic α2A (0.1 μM): compound at 0.1 μM
# T2 construct: expressed in transfected cells; host or cells: insect Sf9 cells
# T2 sequence (P08913 1-465): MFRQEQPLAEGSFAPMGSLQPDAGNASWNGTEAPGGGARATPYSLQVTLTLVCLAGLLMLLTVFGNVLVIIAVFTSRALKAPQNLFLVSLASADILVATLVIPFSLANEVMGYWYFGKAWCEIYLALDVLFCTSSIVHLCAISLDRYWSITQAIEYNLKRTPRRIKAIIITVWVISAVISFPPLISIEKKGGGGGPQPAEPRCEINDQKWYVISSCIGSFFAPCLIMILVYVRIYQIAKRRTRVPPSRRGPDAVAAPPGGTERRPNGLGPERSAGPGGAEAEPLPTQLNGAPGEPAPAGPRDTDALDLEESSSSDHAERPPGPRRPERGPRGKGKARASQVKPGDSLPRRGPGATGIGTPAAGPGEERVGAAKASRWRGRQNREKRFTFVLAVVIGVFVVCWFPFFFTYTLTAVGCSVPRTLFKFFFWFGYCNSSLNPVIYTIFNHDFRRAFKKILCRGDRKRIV
# Outline: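 Displacement of 1 nM [3H]MK-912 from receptor produced in insect Sf9 cells was measured after 60 min at 25 °C. Readout: percent inhibition of specific binding.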
# [3] = molecular target: T3, rat adrenergic α1B receptor (Rattus norvegicus, UniProt P15823); assay: Radioligand binding, adrenergic α1B ([3H]Prazosin); conditions: [3H]Prazosin, repeat datapoints each shown; for Percentage inhibition of ligand binding, Adrenergic α1B (0.1 μM): compound at 0.1 μM; for inhibition at 0.1 µM: read-out: Percentage inhibition of ligand binding, Adrenergic α1B (0.1 μM), compound at 0.1 μM
# T3 construct: rat adrenergic α1B receptor obtained from Wistar Rat liver; from tissue; host or cells: Wistar rat liver
# T3 sequence (P15823 1-515): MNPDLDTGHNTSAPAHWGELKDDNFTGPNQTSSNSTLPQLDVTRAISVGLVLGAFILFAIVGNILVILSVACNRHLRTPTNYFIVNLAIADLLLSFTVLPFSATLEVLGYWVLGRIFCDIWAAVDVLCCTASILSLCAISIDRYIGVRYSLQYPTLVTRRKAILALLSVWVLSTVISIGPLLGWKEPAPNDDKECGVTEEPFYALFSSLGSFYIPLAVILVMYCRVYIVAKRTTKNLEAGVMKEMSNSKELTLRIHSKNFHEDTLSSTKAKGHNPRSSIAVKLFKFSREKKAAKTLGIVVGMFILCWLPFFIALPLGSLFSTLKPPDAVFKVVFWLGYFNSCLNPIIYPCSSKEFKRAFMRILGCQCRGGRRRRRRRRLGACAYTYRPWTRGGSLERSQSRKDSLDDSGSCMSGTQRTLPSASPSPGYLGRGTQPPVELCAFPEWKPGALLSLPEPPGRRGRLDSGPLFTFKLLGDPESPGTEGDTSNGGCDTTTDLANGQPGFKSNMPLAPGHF
# Outline: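 Rat α1B receptor from Wistar rat liver was incubated with 0.25 nM [3H]prazosin for 60 min at 25 °C in 50 mM Tris-HCl, pH 7.4, 0.5 mM EDTA. Non-specific binding was defined with 10 μM phentolamine. Bound radioligand was measured by filtration and counting, reported as percent inhibition of specific binding.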
Compound,"inhibition at 0.03 µM ([1]; read-out: Percentage inhibition of ligand binding, Adrenergic α2B (0.03 μM), compound at 0.03 μM) [%]","inhibition at 0.1 µM ([2]; read-out: Percentage inhibition of ligand binding, Adrenergic α2A (0.1 μM), compound at 0.1 μM) [%]","Percentage inhibition of ligand binding, Adrenergic α1B (0.1 μM) [3] [%]","Percentage inhibition of ligand binding, Adrenergic α2B (0.03 μM) [1] [%]","Percentage inhibition of ligand binding, Adrenergic α2A (0.1 μM) [2] [%]",inhibition at 0.1 µM [3] [%]
"Cc1ccc2c(c1)c1c(n2CC(C)(O)c2ccc(C(N)=O)nc2)CCN(C)C1 (single isomer, unassigned) [II-136a, 5-(1-(1,2,3,4-tetrahydro-2,8-dimethylpyrido[4,3-b]indol-5-yl)-2-hydroxypropan-2-yl)pyridine-2-carboxamide]",36,7,60,,,
"Cc1ccc2c(c1)c1c(n2CC(C)(O)c2ccc(C(N)=O)nc2)CCN(C)C1 (single isomer, unassigned) [II-136b, 5-(1-(1,2,3,4-tetrahydro-2,8-dimethylpyrido[4,3-b]indol-5-yl)-2-hydroxypropan-2-yl)pyridine-2-carboxamide]",,,31,32,5,
"Cc1ccc2c(c1)c1c(n2CC(C)(O)c2cccnc2)CC(C)N(C)C1 (single isomer, unassigned) [II-146a, 2-(pyridin-3-yl)-1-(2,3,8-trimethyl-3,4-dihydro-1H-pyrido[4,3-b]indol-5(2H)-yl)propan-2-ol]",,,,102,47,23
"Cc1ccc2c(c1)c1c(n2CC(C)(O)c2cccnc2)CC(C)N(C)C1 (single isomer, unassigned) [II-146b, 2-(pyridin-3-yl)-1-(2,3,8-trimethyl-3,4-dihydro-1H-pyrido[4,3-b]indol-5(2H)-yl)propan-2-ol]",,,13,43,5,
"Cc1ccc2c(c1)c1c(n2CC(C)(O)c2cccnc2)CC(C)N(C)C1 (single isomer, unassigned) [II-146c, 2-(pyridin-3-yl)-1-(2,3,8-trimethyl-3,4-dihydro-1H-pyrido[4,3-b]indol-5(2H)-yl)propan-2-ol]",,,17,42,8,
"Cc1ccc2c(c1)c1c(n2CC(C)(O)c2cccnc2)CC(C)N(C)C1 (single isomer, unassigned) [II-146d, 2-(pyridin-3-yl)-1-(2,3,8-trimethyl-3,4-dihydro-1H-pyrido[4,3-b]indol-5(2H)-yl)propan-2-ol]",,,13,16,3,
"CC1Cc2c(c3cc(Cl)ccc3n2CC(C)(O)c2cccnc2)CN1C (single isomer, unassigned) [II-147a, 1-(8-chloro-2,3-dimethyl-3,4-dihydro-1H-pyrido[4,3-b]indol-5(2H)-yl)-2-(pyridin-3-yl)propan-2-ol]",,,32,102,57,
"CC1Cc2c(c3cc(Cl)ccc3n2CC(C)(O)c2cccnc2)CN1C (single isomer, unassigned) [II-147b, 1-(8-chloro-2,3-dimethyl-3,4-dihydro-1H-pyrido[4,3-b]indol-5(2H)-yl)-2-(pyridin-3-yl)propan-2-ol]",,,20,66,15,
"CC1Cc2c(c3cc(Cl)ccc3n2CC(C)(O)c2cccnc2)CN1C (single isomer, unassigned) [II-147c, 1-(8-chloro-2,3-dimethyl-3,4-dihydro-1H-pyrido[4,3-b]indol-5(2H)-yl)-2-(pyridin-3-yl)propan-2-ol]",,,7,38,3,
"CC1Cc2c(c3cc(Cl)ccc3n2CC(C)(O)c2cccnc2)CN1C (single isomer, unassigned) [II-147d, 1-(8-chloro-2,3-dimethyl-3,4-dihydro-1H-pyrido[4,3-b]indol-5(2H)-yl)-2-(pyridin-3-yl)propan-2-ol]",,,10,13,4,
"Cc1cnc2c(c1)c1c(n2CC(C)(O)c2ccc(F)cc2)CCN2CCCC12 (single isomer, unassigned) [II-149a, 2-(4-fluoro-phenyl)-1-(9-methyl-1,2,3,4,5,10c-hexahydro-3a,6,7-triazacyclopenta[c]fluoren-6-yl)-propan-2-ol]",,,90,104,53,
"Cc1cnc2c(c1)c1c(n2CC(C)(O)c2ccc(F)cc2)CCN2CCCC12 (single isomer, unassigned) [II-149b, 2-(4-fluoro-phenyl)-1-(9-methyl-1,2,3,4,5,10c-hexahydro-3a,6,7-triazacyclopenta[c]fluoren-6-yl)-propan-2-ol]",,,59,96,27,
"Cc1cnc2c(c1)c1c(n2CC(C)(O)c2ccc(F)cc2)CCN2CCCC12 (single isomer, unassigned) [II-149c, 2-(4-fluoro-phenyl)-1-(9-methyl-1,2,3,4,5,10c-hexahydro-3a,6,7-triazacyclopenta[c]fluoren-6-yl)-propan-2-ol]",,,49,41,5,
"Cc1cnc2c(c1)c1c(n2CC(C)(O)c2ccc(F)cc2)CCN2CCCC12 (single isomer, unassigned) [II-149d, 2-(4-fluoro-phenyl)-1-(9-methyl-1,2,3,4,5,10c-hexahydro-3a,6,7-triazacyclopenta[c]fluoren-6-yl)-propan-2-ol]",,,41,44,7,
"Cc1ccc2c(c1)c1c(n2CC(C)(O)c2cccnc2)C(O)CN(C)C1 (single isomer, unassigned) [II-151a]",,,,27,1,11
"Cc1ccc2c(c1)c1c(n2CC(C)(O)c2cccnc2)C(O)CN(C)C1 (single isomer, unassigned) [II-151b]",,,13,78,11,
